From patent publication US9611277B2 (Janssen Pharmaceutica NV, priority 2013, dated 2017)
Like-named read-outs stand apart in the source and are kept apart here.

Assays:
[1] = molecular target: human orexin 2 receptor (Homo sapiens (Human), UniProt O43614); assay: Human orexin 2 receptor radioligand binding; settings: read-out: hOX2 Ki
Procedure: (§1) Data are analyzed using pc-Sandy macro and graphed on Graphpad Prism 5. For analysis, each concentration point is averaged from triplicate values and the averaged values are plotted on Graphpad Prism. The IC50 was determined by applying the following equation (GraphPad Prism 5.0, SanDiego) for one site competition where X=log (concentration) and Y=specific binding. Top denotes the total [^3H]-(1-(5-(2-fluoro-phenyl)-2-methyl-thiazol-4-yl)-1-((S)-2-(5-phenyl-(1,3,4)oxadiazol-2-ylmethyl)-pyrrolidin-1-yl)-methanone) binding, bottom denotes the nonspecific [^3H]-(1-(5-(2-fluoro-phenyl)-2-methyl-thiazol-4-yl)-1-((S)-2-(5-phenyl-(1,3,4)oxadiazol-2-ylmethyl)-pyrrolidin-1-yl)-methanone) binding. Graphpad Prism calculates Ki value from IC50 and the pre-determined Kd values for [^3H]-(1-(5-(2-fluoro-phenyl)-2-methyl-thiazol-4-yl)-1-((S)-2-(5-phenyl-(1,3,4)oxadiazol-2-ylmethyl)-pyrrolidin-1-yl)-methanone) and [3H]-EMPA. The Ki for each compound is then uploaded into 3DX. Each run comprises individual compounds in triplicate. The data in Table 1 and Table 2 represent averages from between 2-20 runs
Human Orexin 2 Receptor Radioligand Binding Studies
HEK293 stably expressing human orexin 2 receptor (Genebank accession number NM_001526) were grown to confluency in DMEM (Hyclone, cat # SH30022), 10% FBS, 1× Pen/Strep, 1× NaPyruvate, 10 mM HEPES, 600 ug/ml G418 media on 150 cm^2 tissue culture plates, washed with 5 mM EDTA in PBS (HyClone Dulbecco's Phosphate Buffered Saline 1× with Calcium and Magnesium, Cat # SH30264.01, hereafter referred to simply as PBS) and scraped into 50 ml tubes. After centrifugation (2K×G, 5 min at 4° C.), the supernatant was aspirated and the pellets frozen and stored at −80° C. […] Each cell pellet from a 15 cm plate was resuspended in 10 mL, stored on ice, and homogenized for 45 sec just prior to addition to the reactions. […] The final concentration of DMSO in the reactions is equal to or less than 0.1%. Total and nonspecific binding was determined in the absence and presence of 10 μM almorexant. The total volume of each reaction is 200 μL (20 μL of diluted compounds, 80 μL of [^3H]-EMPA diluted in PBS and 100 μL of the cell suspension). […] The plates were washed 3 times by aspirating 30 ml PBS through the plates. Plates were dried in 55° C. oven for 60 min, scintillation fluid was added, and the radioactivity was counted on a Topcount (Packard).

[2] = molecular target: human orexin 1 receptor (Homo sapiens, UniProt O43613); assay: Human orexin 1 receptor radioligand binding; settings: read-out: hOX1 Ki
Procedure: as §1
(§2) Rat and Human Orexin 1 Receptor Radioligand Binding Studies
(§3) After centrifugation (2K×G, 5 min at 4° C.), the supernatant was aspirated and the pellets frozen and stored at −80° C. […] Each cell pellet from a 15 cm plate was resuspended in 10 mL, stored on ice, and homogenized for 45 sec prior to addition to the reactions. […] The final concentration of DMSO in the reactions is equal to or less than 0.1%. Total and nonspecific binding was determined in the absence and presence of 10 μM almorexant. The total volume of each reaction is 200 μL (20 μL of diluted compounds, 80 μL of [^3H]-(1-(5-(2-fluoro-phenyl)-2-methyl-thiazol-4-yl)-1-((S)-2-(5-phenyl-(1,3,4)oxadiazol-2-ylmethyl)-pyrrolidin-1-yl)-methanone) diluted in PBS and 100 μL of the cell suspension). […] The plates were washed 3 times by aspirating 30 ml PBS through the plates. Plates were dried in 55° C. oven for 60 min, scintillation fluid was added, and the radioactivity was counted on a Topcount (Packard).

[3] = molecular target: rat orexin 1 receptor (Rattus norvegicus, UniProt P56718); assay: Rat orexin 1 receptor radioligand binding; settings: read-out: rOX1 Ki
Procedure: as §1, §2, §3

[4] = human orexin 2 receptor, averages of 2-20 runs
[5] = human orexin 1 receptor, averages of 2-20 runs
[6] = rat orexin 1 receptor, averages of 2-20 runs

Sequence of human orexin 2 receptor (O43614 whole entry): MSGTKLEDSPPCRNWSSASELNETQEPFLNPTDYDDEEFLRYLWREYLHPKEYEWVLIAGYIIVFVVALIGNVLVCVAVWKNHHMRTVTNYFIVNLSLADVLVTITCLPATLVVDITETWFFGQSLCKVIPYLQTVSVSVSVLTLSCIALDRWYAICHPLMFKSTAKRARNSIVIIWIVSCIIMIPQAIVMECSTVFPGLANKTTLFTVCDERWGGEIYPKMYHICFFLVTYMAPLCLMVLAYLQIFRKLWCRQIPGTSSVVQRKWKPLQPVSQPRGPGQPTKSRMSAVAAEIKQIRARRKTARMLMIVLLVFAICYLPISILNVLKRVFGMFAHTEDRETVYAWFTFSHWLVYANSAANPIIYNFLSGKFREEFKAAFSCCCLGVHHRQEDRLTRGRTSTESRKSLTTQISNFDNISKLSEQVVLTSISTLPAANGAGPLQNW

Ki [1, 4]	Ki [2, 5]	Ki [3, 6]	SMILES	Ki [1]	Ki [2]	Ki [3]
779 nM	18 nM	25 nM	Cc1nc(C(=O)N2CC3CC(Oc4ccc(C(F)(F)F)cn4)C2C3)c(-c2ccc(F)cc2)s1 (racemic) [Example 5, (R/S)-(5-(4-fluorophenyl)-2-methylthiazol-4-yl)(6-((5-(trifluoromethyl)pyridin-2-yl)oxy)-2-azabicyclo[2.2.1]heptan-2-yl)methanone]			
348 nM	10 nM	20 nM	Cc1cccc(C(=O)N2CC3CCC2C(Nc2cnc(C(F)(F)F)cn2)C3)c1-n1nccn1 (racemic) [Example 256, (R/S)-(3-methyl-2-(2H-1,2,3-triazol-2-yl)phenyl)(6-((5-(trifluoromethyl)pyrazin-2-yl)amino)-2-azabicyclo[2.2.2]octan-2-yl)methanone]			
741 nM	24 nM	21 nM	O=C(c1cccc(F)c1-c1ncccn1)N1CC2CCC1C(Nc1cnc(C(F)(F)F)cn1)C2 (racemic) [Example 257, (R/S)-(3-fluoro-2-(pyrimidin-2-yl)phenyl)(6-((5-(trifluoromethyl)pyrazin-2-yl)amino)-2-azabicyclo[2.2.2]octan-2-yl)methanone]			
2600 nM	17 nM	26 nM	O=C(c1ccc(F)cc1-c1ncccn1)N1CC2CCC1C(Nc1cnc(C(F)(F)F)cn1)C2 (racemic) [Example 258, (R/S)-(4-fluoro-2-(pyrimidin-2-yl)phenyl)(6-((5-(trifluoromethyl)pyrazin-2-yl)amino)-2-azabicyclo[2.2.2]octan-2-yl)methanone]			
2330 nM	39 nM		O=C(c1ccc(F)cc1-n1nccn1)N1C[C@H]2C[C@@H](Oc3ccc(C(F)(F)F)cn3)[C@@H]1C2 [Example 44, (4-fluoro-2-(2H-1,2,3-triazol-2-yl)phenyl)((1S,4R,6R)-6-((5-(trifluoromethyl)pyridin-2-yl)oxy)-2-azabicyclo[2.2.1]heptan-2-yl)methanone]			
903 nM	5 nM	4 nM	O=C(c1cccc(F)c1-c1ncccn1)N1C[C@H]2C[C@@H](Oc3ccc(Br)cn3)[C@@H]1C2 [Example 48, ((1S,4R,6R)-6-((5-bromopyridin-2-yl)oxy)-2-azabicyclo[2.2.1]heptan-2-yl)(3-fluoro-2-(pyrimidin-2-yl)phenyl)methanone]			
443 nM	5 nM		O=C(c1ccccc1-n1nccn1)N1C[C@H]2C[C@@H](Oc3ccc(Br)cn3)[C@@H]1C2 [Example 49, (2-(2H-1,2,3-triazol-2-yl)phenyl)((1S,4R,6R)-6-((5-bromopyridin-2-yl)oxy)-2-azabicyclo[2.2.1]heptan-2-yl)methanone]			
578 nM	10 nM		Cc1ccc(-n2nccn2)c(C(=O)N2C[C@H]3C[C@@H](Oc4ccc(Br)cn4)[C@@H]2C3)n1 [Example 50, ((1S,4R,6R)-6-((5-bromopyridin-2-yl)oxy)-2-azabicyclo[2.2.1]heptan-2-yl)(6-methyl-3-(2H-1,2,3-triazol-2-yl)pyridin-2-yl)methanone]			
193 nM	3 nM	5 nM	O=C(c1cc(F)ccc1-c1ncccn1)N1C[C@H]2C[C@@H](Nc3ccc(C(F)(F)F)cn3)[C@@H]1C2 [Example 58, (5-fluoro-2-(pyrimidin-2-yl)phenyl)((1S,4S,6R)-6-((5-(trifluoromethyl)pyridin-2-yl)amino)-2-azabicyclo[2.2.1]heptan-2-yl)methanone]			
192 nM	7 nM		O=C(c1ccccc1-n1nccn1)N1C[C@H]2C[C@@H](Nc3cnc(C(F)(F)F)cn3)[C@@H]1C2 [Example 59, (2-(2H-1,2,3-triazol-2-yl)phenyl)((1S,4S,6R)-6-((5-(trifluoromethyl)pyrazin-2-yl)amino)-2-azabicyclo[2.2.1]heptan-2-yl)methanone]			
617 nM	12 nM	20 nM	O=C(c1ccccc1-n1nccn1)N1C[C@H]2C[C@@H](Nc3ncc(C(F)(F)F)cn3)[C@@H]1C2 [Example 60, (2-(2H-1,2,3-triazol-2-yl)phenyl)((1S,4S,6R)-6-((5-(trifluoromethyl)pyrimidin-2-yl)amino)-2-azabicyclo[2.2.1]heptan-2-yl)methanone]			
248 nM	19 nM	15 nM	Cc1ccc(-n2nccn2)c(C(=O)N2C[C@H]3C[C@@H](Nc4cnc(C(F)(F)F)cn4)[C@@H]2C3)n1 [Example 61, (6-methyl-3-(2H-1,2,3-triazol-2-yl)pyridin-2-yl)((1S,4S,6R)-6-((5-(trifluoromethyl)pyrazin-2-yl)amino)-2-azabicyclo[2.2.1]heptan-2-yl)methanone]			
569 nM	19 nM	28 nM	Cc1ccc(-n2nccn2)c(C(=O)N2C[C@H]3C[C@@H](Nc4ncc(C(F)(F)F)cn4)[C@@H]2C3)n1 [Example 62, (6-methyl-3-(2H-1,2,3-triazol-2-yl)pyridin-2-yl)((1S,4S,6R)-6-((5-(trifluoromethyl)pyrimidin-2-yl)amino)-2-azabicyclo[2.2.1]heptan-2-yl)methanone]			
181 nM	5 nM	2 nM	O=C(c1cccc(F)c1-c1ncccn1)N1C[C@H]2C[C@@H](Nc3ccc(C(F)(F)F)cn3)[C@@H]1C2 [Example 66, (3-fluoro-2-(pyrimidin-2-yl)phenyl)((1S,4S,6R)-6-((5-(trifluoromethyl)pyridin-2-yl)amino)-2-azabicyclo[2.2.1]heptan-2-yl)methanone]			
264 nM	7 nM	7 nM	O=C(c1cccc(F)c1-c1ncccn1)N1C[C@H]2C[C@@H](Nc3cnc(C(F)(F)F)cn3)[C@@H]1C2 [Example 67, (3-fluoro-2-(pyrimidin-2-yl)phenyl)((1S,4S,6R)-6-((5-(trifluoromethyl)pyrazin-2-yl)amino)-2-azabicyclo[2.2.1]heptan-2-yl)methanone]			
612 nM	8 nM	7 nM	O=C(c1cccc(F)c1-c1ncccn1)N1C[C@H]2C[C@@H](Nc3ncc(C(F)(F)F)cn3)[C@@H]1C2 [Example 68, (3-fluoro-2-(pyrimidin-2-yl)phenyl)((1S,4S,6R)-6-((5-(trifluoromethyl)pyrimidin-2-yl)amino)-2-azabicyclo[2.2.1]heptan-2-yl)methanone]			
1800 nM	16 nM	16 nM	O=C(c1cccc(F)c1-c1ncccn1)N1C[C@@H]2CC[C@H]1[C@H](Oc1cnc(C(F)(F)F)cn1)C2 [Example 74, (3-fluoro-2-(pyrimidin-2-yl)phenyl)((1S,4R,6R)-6-((5-(trifluoromethyl)pyrazin-2-yl)oxy)-2-azabicyclo[2.2.2]octan-2-yl)methanone]			
			Cc1ccc(-n2nccn2)c(C(=O)N2C[C@@H]3CC[C@H]2[C@H](Oc2ccc(C(F)(F)F)cn2)C3)n1 [Example 76, (6-methyl-3-(2H-1,2,3-triazol-2-yl)pyridin-2-yl)((1S,4R,6R)-6-((5-(trifluoromethyl)pyridin-2-yl)oxy)-2-azabicyclo[2.2.2]octan-2-yl)methanone]	211 nM	3 nM	4 nM
1700 nM	13 nM	9 nM	Cc1ccc(-n2nccn2)c(C(=O)N2C[C@@H]3CC[C@H]2[C@H](Oc2cnc(C(F)(F)F)cn2)C3)n1 [Example 77, (6-methyl-3-(2H-1,2,3-triazol-2-yl)pyridin-2-yl)((1S,4R,6R)-6-((5-(trifluoromethyl)pyrazin-2-yl)oxy)-2-azabicyclo[2.2.2]octan-2-yl)methanone]			
